Source: patent US20170121344A1 (Siga Technologies, Inc., priority 2009, published 2017)
pEC50: −log10 of the molar value. Where two headings read alike, the source gives them in different places.

Test system: Dengue-2 (Strain New Guinea C)
Experiment: Viral yield assay against Dengue-2 in Vero cells
Format: cell-based, Dengue virus
Settings: Dengue virus; for pEC50: read-out: Activity (EC50 class) against Dengue-2 Virus in Vero cells; for EC50: DENV2, viral yield assay, MOI 0.1, 48 hours post infection, read-out: Activity (EC50 in μM) DENV-2
Summary of the method: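 Virus yield, titered on Vero cells from cultures harvested at 48 h post infection, gave the EC50. Cultures were infected at MOI 0.1 with dengue-2 and treated with compound or DMSO at 37° C. DENV-1 and DENV-4 were determined similarly.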

[1] = Vero cells, MOI 0.1, harvested 48 hours post infection

## CC1(C)Cc2c(c(N3CCOCC3)nc3sc4c(c23)N2C(=O)CCC2(C)NC4=O)CO1 (centres unmarked) [Compound 248, 2,2,9a-Trimethyl-5-(4-morpholinyl)-1,4,9,9a,10,11-hexahydro-2H-pyrano[4″,3″:4′,5′]pyrido[3′,2′:4, 5]thieno[2,3-e]pyrrolo[1,2-a]pyrimidine-8,12-dione]
[1]
  pEC50: < 4.60

## Nc1c(C(=O)Nc2cccc(C(F)(F)F)c2)sc2nc(-c3ccc(F)cc3)ccc12 [Compound 456, 3-amino-6-(4-fluorophenyl)-N-[3-(trifluoromethyl)phenyl]thieno[2,3-b] pyridine-2-carboxamide]
Vero cells
  EC50: < 5 µM

## Nc1c(C(=O)Nc2nnc(-c3ccccc3)s2)sc2nc3c(cc12)CCC3 [Compound 88, 3-Amino-6,7-dihydro-5H-cyclopenta[b]thieno[3,2-e]pyridine-2-carboxylic acid (5-phenyl-[1,3,4]thiadiazol-2-yl)-amide]
[1]
  pEC50: 4.60 to 5.30

## COCc1cc(C)nc2sc(C(=O)Nc3ccc(C)c(Cl)c3)c(N)c12 [Compound 229, 3-Amino-4-methoxymethyl-6-methyl-thieno[2,3-b]pyridine-2-carboxylic acid (3-chloro-4-methyl-phenyl)-amide]
[1]
  pEC50: < 4.60

## COc1ccccc1NC(=O)c1sc2nc(N3CCOCC3)cc(-c3ccccc3)c2c1O [Compound 385, 3-hydroxy-N-(2-methoxyphenyl)-6-morpholino-4-phenyl-thieno[2,3-b] pyridine-2-carboxamide]
Vero cells
  EC50: 5 to 25 µM

## CN1CCc2nc3sc(C(=O)Nc4cccc(C#N)c4)c(N)c3cc2C1 [Compound 112, 3-Amino-6-methyl-5,6,7,8-tetrahydro-thieno[2,3-b][1,6]naphthyridine-2-carboxylic acid (3-cyano-phenyl)-amide]
[1]
  pEC50: 4.60 to 5.30

## Cc1cc(C)c2c(N)c(C(=O)NCCc3ccccc3)sc2n1 [Compound 257, 3-Amino-4,6-dimethyl-thieno[2,3-b]pyridine-2-carboxylic acid phenethyl-amide]
Vero, 48 h
  pEC50: < 4.60

## Cc1cccc(C)c1NC(=O)c1sc2nc(N)c(C#N)cc2c1N [Compound 127, 3,6-Diamino-5-cyano-thieno[2,3-b]pyridine-2-carboxylic acid (2,6-dimethyl-phenyl)-amide]
[1]
  pEC50: < 4.60

## Cc1cc(C)c2c(C)c(C(=O)N3c4ccccc4CC3C)sc2n1 (centres unmarked) [Compound 398, (2-methylindolin-1-yl)-(3,4,6-trimethyl-thieno[2,3-b]pyridin-2-yl)methanone]
Vero cells
  EC50: 5 to 25 µM

## Cc1cc(C)c2c(C)c(C(=O)NC(C)C3CC3)sc2n1 (centres unmarked) [Compound 394, N-(1-cyclopropylethyl)-3,4,6-trimethyl-thieno[2,3-b]pyridine-2-carboxamide]
Vero cells
  EC50: < 5 µM

## Cc1ccc(-c2ccc3c(N)c(C(=O)Nc4ccccc4[N+](=O)[O-])sc3n2)cc1 [Compound 639, 3-amino-N-(2-nitrophenyl)-6-(p-tolyl) thieno[2,3-b]pyridine-2-carboxamide]
Vero cells
  EC50: < 5 µM

## Nc1c(C(=O)Nc2ccccc2C(F)(F)F)sc2nc(-c3ccncc3)ccc12 [Compound 480, 3-amino-6-(4-pyridyl)-N-[2-(trifluoromethyl)phenyl]thieno[2,3-b] pyridine-2-carboxamide]
Vero cells
  EC50: < 5 µM

## COc1ccc(CNC(=O)c2sc3nc4c(c(C(F)(F)F)c3c2N)CN(C(C)=O)CC4)cc1 [Compound 262, 6-Acetyl-3-amino-4-trifluoromethyl-5,6,7,8-tetrahydro-thieno[2,3-b][1,6]naphthyridine-2-carboxylic acid 4-methoxy-benzylamide]
Vero, 48 h
  pEC50: < 4.60

## Cc1ccc2c(n1)sc1c(=O)n(-c3cccc(Br)c3)nnc12 [Compound 479, 3-(3-bromophenyl)-7-methylpyrido[3′,2′:4,5]thieno[3,2-d] [1,2,3]triazin-4(3H)-one]
Vero cells
  EC50: < 5 µM

## CN1CCc2nc3sc(C(=O)NCCc4ccccc4)c(N)c3cc2C1 [Compound 267, 3-Amino-6-methyl-5,6,7,8-tetrahydro-thieno[2,3-b][1,6]naphthyridine-2-carboxylic acid phenethyl-amide]
[1]
  pEC50: < 4.60

## Nc1c(C(=O)Nc2ccc(Br)cc2)sc2nc(-c3ccc(Cl)cc3Cl)ccc12 [Compound 654, 3-amino-N-(4-bromophenyl)-6-(2,4-dichlorophenyl)thieno[2,3-b]pyridine-2-carboxamide]
Vero cells
  EC50: < 5 µM

## CCOc1ccc(-c2c3c(nc4sc(C(=O)Nc5nccs5)c(N)c24)CCCC3)cc1 [Compound 241, 3-Amino-4-(4-ethoxy-phenyl)-5,6,7,8-tetrahydro-thieno[2,3-b]quinoline-2-carboxylic acid thiazol-2-ylamide]
[1]
  pEC50: < 4.60

## CN1CCc2nc3sc(C(=O)Nc4cc(Cl)ccc4Cl)c(N)c3cc2C1 [Compound 44, 3-Amino-6-methyl-5,6,7,8-tetrahydro-thieno[2,3-b][1,6]naphthyridine-2-carboxylic acid (2,5-dichloro-phenyl)-amide]
[1]
  pEC50: > 5.30

## COc1ccccc1NC(=O)c1sc2nc3c(cc2c1N)CN(C)CC3 [Compound 58, 3-Amino-6-methyl-5,6,7,8-tetrahydro-thieno[2,3-b][1,6]naphthyridine-2-carboxylic acid (2-methoxy-phenyl)-amide]
[1]
  pEC50: > 5.30

## Cc1ccc(-c2c3c(nc4sc(C(N)=O)c(N)c24)CCCC3)cc1 [Compound 227, 3-Amino-4-p-tolyl-5,6,7,8-tetrahydro-thieno[2,3-b]quinoline-2-carboxylic acid amide]
[1]
  pEC50: < 4.60

## Nc1c(C(=O)NC2CCCCC2)sc2nc3c(cc12)CCCCC3 [Compound 281, 3-amino-N-cyclohexyl-6,7,8,9-tetrahydro-5H-cyclohepta[b]thieno [3,2-e]pyridine-2-carboxamide]
Vero cells
  EC50: 5 to 25 µM

## Cc1ccc(Cl)cc1NC(=O)c1sc2nc(-c3ccc(F)cc3)ccc2c1N [Compound 621, 3-amino-N-(5-chloro-2-methyl-phenyl)-6-(4-fluorophenyl)thieno[2,3-b]pyridine-2-carboxamide]
Vero cells
  EC50: < 5 µM

## CCOC(=O)N1CCC(NC(=O)c2sc3nc4c(cc3c2N)CN(CC)CC4)CC1 [Compound 275]
[1]
  pEC50: < 4.60

## Cc1nc2c(sc3nc4c(cc32)COC(C)(C)C4)c(=O)n1CC1CCCO1 (centres unmarked) [Compound 236, 3,8,8-Trimethyl-2-(tetrahydro-furan-2-ylmethyl)-8,9-dihydro-2H,6H-7-oxa-11-thia-2,4,10-triaza-benzo[b]fluoren-1-one]
[1]
  pEC50: < 4.60

## CCC1(C)Cc2c(c(N3CCOCC3)nc3sc4c(=O)[nH]cnc4c23)CO1 (centres unmarked) [Compound 261, 2-Ethyl-2-methyl-5-morpholin-4-yl-1,4-dihydro-2H,9H-3-oxa-7-thia-6,9,11-triaza-benzo[c]fluoren-8-one]
[1]
  pEC50: < 4.60

## Cc1cc(C)c2c(C)c(C(=O)NCc3ccco3)sc2n1 [Compound 389, N-(2-furylmethyl)-3,4,6-trimethyl-thieno [2,3-b]pyridine-2-carboxamide]
Vero cells
  EC50: 5 to 25 µM

## COc1cccc(-c2ccc3c(N)c(C(=O)Nc4ccc(F)c(F)c4)sc3n2)c1 [Compound 525, 3-amino-N-(3,4-difluorophenyl)-6-(3-methoxyphenyl)thieno[2,3-b]pyridine-2-carboxamide]
Vero cells
  EC50: < 5 µM

## CCOc1ccccc1NC(=O)c1sc2nc(-c3ccc(C)cc3)ccc2c1N [Compound 647, 3-amino-N-(2-ethoxyphenyl)-6-(p-tolyl)thieno[2,3-b]pyridine-2-carboxamide]
Vero cells
  EC50: < 5 µM

## Nc1c(C(=O)Nc2cccc(C(F)(F)F)c2)sc2nc(C(F)(F)F)ccc12 [Compound 317, 3-amino-6-(trifluoromethyl)-N-[3-(trifluoromethyl)phenyl]thieno[2,3-b]pyridine-2-carboxamide]
Vero cells
  EC50: < 5 µM

## COc1ccc(NC(=O)c2sc3nc(-c4ccc(OC)c(OC)c4)ccc3c2N)c(C)c1 [Compound 500, 3-amino-6-(3,4-dimethoxyphenyl)-N-(4-methoxy-2-methyl-phenyl)thieno[2,3-b] pyridine-2-carboxamide]
Vero cells
  EC50: < 5 µM

## CC(=O)c1ccc(NC(=O)c2sc3nc(C)cc(C)c3c2N)cc1 [Compound 120, 3-Amino-4,6-dimethyl-thieno[2,3-b]pyridine-2-carboxylic acid (4-acetyl-phenyl)-amide]
[1]
  pEC50: < 4.60

## CC(C)(C)NC(=O)c1sc2nc3c(cc2c1N)CCCCC3 [Compound 283, 3-amino-N-(tert-butyl)-6,7,8,9-tetrahydro-5H-cyclohepta[b]thieno [3,2-c]pyridine-2-carboxamide]
Vero cells
  EC50: < 5 µM

## NC(=O)c1sc2nc(-c3cccnc3)ccc2c1N [Compound 164, 3-Amino-6-pyridin-3-yl-thieno[2,3-b]pyridine-2-carboxylic acid amide]
[1]
  pEC50: < 4.60

## Nc1c(C(=O)Nc2nnc(-c3ccccc3)s2)sc2nc(-c3cccs3)cc(C(F)(F)F)c12 [Compound 5, 3-Amino-6-thiophen-2-yl-4-trifluoromethyl-thieno[2,3-b]pyridine-2-carboxylic acid (5-phenyl-[1,3,4]thiadiazol-2-yl)-amide]
[1]
  pEC50: > 5.30

## Nc1c(C(=O)Nc2nnc(-c3ccccc3)s2)sc2nc3c(cc12)CCCC3 [Compound 53, 3-Amino-5,6,7,8-tetrahydro-thieno[2,3-b]quinoline-2-carboxylic acid (5-phenyl-[1,3,4]thiadiazol-2-yl)-amide]
[1]
  pEC50: > 5.30

## CN1CCc2nc3sc(C(=O)Nc4ccc(C(C)(C)C)cc4)c(N)c3cc2C1 [Compound 35, 3-Amino-6-methyl-5,6,7,8-tetrahydro-thieno[2,3-b][1,6]naphthyridine-2-carboxylic acid (4-tert-butyl-phenyl)-amide]
[1]
  pEC50: > 5.30

## CCN(CC)C(=O)c1sc2nc(-c3ccccc3)cc(C(F)(F)F)c2c1N [Compound 196, 3-Amino-6-phenyl-4-trifluoromethyl-thieno[2,3-b]pyridine-2-carboxylic acid diethylamide]
[1]
  pEC50: < 4.60

## CN1CCc2nc3sc(C(=O)Nc4ccc5c(c4)OCO5)c(N)c3cc2C1 [Compound 33, 3-Amino-6-methyl-5,6,7,8-tetrahydro-thieno[2,3-b][1,6]naphthyridine-2-carboxylic acid benzo[1,3]dioxol-5-ylamide]
[1]
  pEC50: > 5.30
